Three molecules from patent publication US20090137391A1, “Use of benzyladenine to improve emergence of seeds treated with abscisic acid” (priority 2007, published 2009) can be followed below.

Assay type in all cases: in vivo
In assay [1] the test system is canola seed. Briefly: Canola seed treatment, soil emergence: ABA-dose x benzyladenine (technical powder) dose factorial. As for the experimental part:
The experiment was set up as an ABA-dose×BA-dose factorial experiment, with four doses of ABA (0, 25, 50, and 100 g/cwt) and four doses of benzyladenine (0, 1, 5 and 25 g/cwt) for a total of 16 treatment combinations. The treatments were made up in 1 ml samples of experimental aqueous seed treatment slurry. ABA was added in the form of a water solution of the ammonium salt. Benzyladenine was added as technical powder. Ten μl Tween-20 were added to each sample to help wet and suspend the benzyladenine powder. All of the seed treatment slurry samples contained CF-Clear film-forming agent and Color Coat Red (Becker Underwood), each at 1 oz/cwt, and 0.167 oz/cwt Maxim XL fungicide (Syngenta). The slurry application volume was 40 […]=100 lbs of seed). Ten gram samples of canola seed were treated with the experimental slurries using a Hege 11 seed treater with a six-inch bowl. The seed was planted in plastic boxes containing 1 kg of typical agricultural silt loam. One hundred seeds were planted 2 cm deep in each plastic box, and the soil in the box was adjusted to 21% soil moisture (wet-weight basis). Two replications of the experiment were incubated under constant light in a 10° C. chamber. The soil temperature averaged 12.6° C. The boxes were watered up to the correct weight every 1-2 days, and checked for emergence. Counts of seedlings were continued until it became clear that emergence had ceased (28 days). The final count of emerged seedlings was expressed as a percentage of the 100 seeds planted. The daily counts were converted to proportions of the final emergence of the box, and a Gompertz curve was fitted to the data from each box using SAS Proc NLIN. […] Analysis of variance was performed and means calculated for each of the three responses (Final emergence, […]).

Assay [2] concerns canola seed. Briefly: Canola seed treatment, soil emergence: ABA-dose x benzyladenine (as Maxcel) dose factorial. Here is the method: (§1) The seed was planted in plastic boxes containing 1 kg of typical agricultural silt loam. One hundred seeds were planted 2 cm deep in each plastic box, and the soil in the box was adjusted to 21% soil moisture (wet-weight basis). Two replications of the experiment were incubated under constant light in a 10° C. chamber. The soil temperature averaged 12.6° C. The boxes were watered up to the correct weight every 1-2 days, and checked for emergence. Counts of seedlings were continued until it became clear that emergence had ceased (28 days). The final count of emerged seedlings was expressed as a percentage of the 100 seeds planted.
(§2) The daily counts were converted to proportions of the final emergence of the box, and a Gompertz curve was fitted to the data from each box using SAS Proc NLIN. From the parameters of the model, median emergence time (T50) and quartile range (Qrange) were estimated for each box. Analysis of variance was performed and means calculated for each of the three responses (Final emergence, T50, Qrange).
The experiment was set up as an ABA-dose x benzyladenine-dose factorial experiment, with four doses of ABA (0, 25, 50 and- 100 g/cwt) and three doses of benzyladenine (0, 1 and 5 g/cwt) for a total of 12 treatment combinations. The treatments were made up in 1 ml samples of experimental aqueous seed treatment slurry. ABA was added in the form of a water solution of the ammonium salt. Benzyladenine was added in the form of Maxcel. Treatments receiving less than the maximum amount of Maxcel, received an appropriate amount of Maxcel blank formulation, so that each slurry sample was identical with regard to Maxcel inert ingredients. All of the seed treatment slurry samples contained CF-Clear film-forming agent and Colorcoat Red (Becker Underwood), each at 1 oz/cwt, and 0.167 oz/cwt Maxim XL fungicide (Syngenta). The slurry application volume was 40 oz/cwt (cwt=100 lbs of seed). Ten gram samples of canola seed were treated with the experimental slurries using a Hege 11 seed treater with a six-inch bowl.
The seed was germinated and data analyzed as described under Example 1.

Assay [3] concerns canola seed. Nature of the assay: Canola seed treatment, soil emergence: ABA-dose x CPPU (as Prestige) dose factorial. As for the experimental part:
as §1, §2
The experiment was set up as an ABA-dose×CPPU-dose factorial experiment, with four doses of ABA (0, 25, 50 and 100 g/cwt) and […] doses of CPPU (0, 0.04, 0.2 and 1 g/cwt) for a total of 16 treatment combinations. The treatments were made up in 1 ml samples of experimental aqueous seed treatment slurry. ABA was added as the free acid. CPPU was added in the form of Prestige®. Treatments receiving less than the maximum amount of Prestige, received an appropriate amount of Prestige blank formulation, so that each slurry sample was identical with regard to Prestige inert ingredients. All of the seed treatment slurry samples contained CF-Clear film-forming agent and Colorcoat Red (Becker Underwood), each at 1 oz/cwt, and 0.167 oz/cwt Maxim XL fungicide (Syngenta). The slurry application volume was 40 oz/cwt (cwt=100 lbs of seed). Ten gram samples of canola seed were treated with the experimental slurries using a Hege 11 seed treater with a six-inch bowl.
The seed was germinated and data analyzed as described under Example 1, except that emergence, being unusually low in this trial, rendered the quartile range estimates unreliable. Therefore, quartile range values are not shown.

The test system of assay [4] is canola seed. Nature of the assay: Canola seed treatment, soil emergence: ABA-dose x GA4/7 dose factorial. As to conditions: for Final emergence / QR / T50: GA4/7 dose 0 g/cwt. As for the experimental part:
The experiment was set up as an ABA-dose×GA4/7-dose factorial experiment, with four doses of ABA (0, 25, 50 and 100 g/cwt) and […] doses of GA4/7 (0, 1, 5 and 25 g/cwt) for a total of 16 treatment combinations. The treatments were made up in 1 ml samples of experimental aqueous seed treatment slurry. ABA and GA4/7 were added as the free acid technical powders. All of the seed treatment slurry samples contained CF-Clear film-forming agent and Colorcoat Red (Becker Underwood), each at 1 oz/cwt, and 0.167 oz/cwt Maxim XL fungicide (Syngenta). The slurry application volume was 40 oz/cwt (cwt=100 lbs of seed). Ten gram samples of canola seed were treated with the experimental slurries using a Hege 11 seed treater with a six-inch bowl.

[5] abbreviates: ABA dose 0 g/cwt, Benzyladenine dose 1 g/cwt (technical powder).
The mark [6] stands for this setting: ABA dose 0 g/cwt, Benzyladenine dose 5 g/cwt (technical powder).
Setting [7] is: ABA dose 0 g/cwt, Benzyladenine dose 25 g/cwt (technical powder).
[8] abbreviates: ABA dose 0 g/cwt, Benzyladenine dose 1 g/cwt (in the form of Maxcel).
[9] abbreviates: ABA dose 0 g/cwt, Benzyladenine dose 5 g/cwt (in the form of Maxcel).
Setting [10] is: ABA dose 0 g/cwt, CPPU dose 0.04 g/cwt (in the form of Prestige).
The mark [11] stands for this setting: ABA dose 0 g/cwt, CPPU dose 0.2 g/cwt (in the form of Prestige).
Setting [12] is: ABA dose 0 g/cwt, CPPU dose 1 g/cwt (in the form of Prestige).
Setting [13] is: ABA (ammonium salt) dose 25 g/cwt, Benzyladenine dose 0 g/cwt.
Setting [14] is: ABA (ammonium salt) dose 50 g/cwt, Benzyladenine dose 0 g/cwt.
The mark [15] stands for this setting: ABA (ammonium salt) dose 100 g/cwt, Benzyladenine dose 0 g/cwt.
[16] abbreviates: ABA (ammonium salt) dose 25 g/cwt, Benzyladenine dose 0 g/cwt (Maxcel blank).
Setting [17] is: ABA (ammonium salt) dose 50 g/cwt, Benzyladenine dose 0 g/cwt (Maxcel blank).
Setting [18] is: ABA (ammonium salt) dose 100 g/cwt, Benzyladenine dose 0 g/cwt (Maxcel blank).
Where [19] appears, read: ABA (free acid) dose 25 g/cwt, CPPU dose 0 g/cwt (Prestige blank).
The mark [20] stands for this setting: ABA (free acid) dose 50 g/cwt, CPPU dose 0 g/cwt (Prestige blank).
[21] abbreviates: ABA (free acid) dose 100 g/cwt, CPPU dose 0 g/cwt (Prestige blank).

`c1ccc(CNc2[nH]cnc3ncnc2-3)cc1` [Benzyladenine, N^6-phenylmethyl-1H-purin-6-amine]: the Final emergence was determined as 98.0% with canola seed [1] (setting [5]); 91.6% in the assay on canola seed [1] (setting [6]); 89.9% with canola seed [1] (setting [7]); 97.5% in the assay on canola seed [2] (setting [8]); 97.1% with canola seed [2] (setting [9]). Also, the Qrange is listed as 1.30 days with canola seed [1] (setting [5]); 2.36 days in the assay on canola seed [1] (setting [6]); 3.02 days in the assay on canola seed [1] (setting [7]); 1.84 days in the assay on canola seed [2] (setting [8]); 1.77 days in the assay with canola seed [2] (setting [9]). In addition, the T50 turned out to be 6.37 days in the assay on canola seed [1] (setting [5]); 6.76 days with canola seed [1] (setting [6]); 7.88 days in the assay on canola seed [1] (setting [7]); 6.02 days in the assay on canola seed [2] (setting [8]); 6.09 days in the assay with canola seed [2] (setting [9]).

For the molecule `O=C(Nc1ccccc1)Nc1ccnc(Cl)c1` [CPPU], the Final emergence was 80.3% in the assay with canola seed [3] (setting [10]), 78.1% with canola seed [3] (setting [11]) and 77.6% in the assay on canola seed [3] (setting [12]). Further, the T50 is reported as 7.12 days in the assay with canola seed [3] (setting [10]), 7.48 days with canola seed [3] (setting [11]) and 8.30 days with canola seed [3] (setting [12]).

For the molecule S-(+)- abscisic acid [ABA], the Final emergence was 84.0% in the assay on canola seed [4] (ABA (free acid) dose 25 g/cwt); 66.0% in the assay with canola seed [4] (ABA (free acid) dose 50 g/cwt); 48.0% in the assay with canola seed [4] (ABA (free acid) dose 100 g/cwt); 92.3% with canola seed [1] (setting [13]); 68.9% in the assay on canola seed [1] (setting [14]); 53.5% in the assay on canola seed [1] (setting [15]). Also, the “Final emergence” value is given as “roughly cut in half” with canola seed [1] (ABA at a dose of 100 g/cwt); 92.9% in the assay with canola seed [2] (setting [16]); 91.4% in the assay with canola seed [2] (setting [17]); 49.5% in the assay with canola seed [2] (setting [18]); “roughly cut in half” in the assay with canola seed [2] (ABA at a dose of 100 g/cwt); 84.0% in the assay on canola seed [3] (setting [19]). Also, the Final emergence is 66.0% in the assay with canola seed [3] (setting [20]) and 48.0% in the assay with canola seed [3] (setting [21]). In addition, the QR in the assay on canola seed [4] (ABA (free acid) dose 25 g/cwt) was found to be 3.33 days; in the assay on canola seed [4] (ABA (free acid) dose 50 g/cwt), 3.38 days; with canola seed [4] (ABA (free acid) dose 100 g/cwt), 5.69 days. Besides, the T50 stood at 10.42 days with canola seed [4] (ABA (free acid) dose 25 g/cwt); 12.16 days in the assay with canola seed [4] (ABA (free acid) dose 50 g/cwt); 16.48 days in the assay on canola seed [4] (ABA (free acid) dose 100 g/cwt); 9.15 days in the assay on canola seed [1] (setting [13]); 11.20 days in the assay with canola seed [1] (setting [14]); 12.74 days in the assay on canola seed [1] (setting [15]). Besides, the T50 in the assay with canola seed [2] (setting [16]) turned out to be 8.17 days; in the assay with canola seed [2] (setting [17]), 10.57 days; in the assay on canola seed [2] (setting [18]) it was 13.61 days; in the assay on canola seed [3] (setting [19]) it was 10.4 days; with canola seed [3] (setting [20]), 12.16 days; in the assay on canola seed [3] (setting [21]) it was 16.48 days. For the same molecule, the “emergence” value in the assay on canola seed [4] (high doses of ABA alone) is “significant and important reduction in emergence”; with canola seed [3] (high doses of ABA) it was “significant and important reduction in emergence”. In addition, the Qrange in the assay on canola seed [1] (setting [13]) is reported as 3.26 days; with canola seed [1] (setting [14]) it was 4.27 days; in the assay with canola seed [1] (setting [15]), 4.27 days; with canola seed [2] (setting [16]), 2.06 days; in the assay on canola seed [2] (setting [17]) it was 3.74 days; in the assay on canola seed [2] (setting [18]), 5.84 days.
